Results as given in patent US4798896A, “Antipsychotic gamma-carboline N-oxides” (American Home Products Corporation, priority 1988, dated 1989).

Assays:
[1] = system: trained male CD rats (Charles River); test: conditioned avoidance, shelf-jump response test in trained rats; assay type: in vivo, rat
Excerpt: The antipsychotic/anxiolytic properties of the pyridine N-oxides of this invention were established by standard pharmacologically accepted procedures involving conditioned avoidance studies in which trained male CD rats (Charles River), 400-500 gm body weight, are exposed to a fifteen second warning tone (conditional stimulus) continued for an additional fifteen seconds accompanied by electric shock. The rates can avoid the electric shock by jumping to an exposed shelft (shelf-jump response). A response during the initial warning tone is considered to be an avoidance response while a response during shock delivery is considered an escape response. The avoidance response is determined and expressed as a percentage of total trials from an appropriate number of trials. The shelf-jump response test procedure follows that of Herman et al., Comm. in Psychopharm., 3, 165 (1979).

[2] = target: T1, dopamine receptors (limbic D2) (Rattus norvegicus, UniProt P61169); test: limbic (accumbens) D2 binding, 3H-spiroperidol; conditions: limbic brain tissue
T1 construct: from tissue
Description: (§1) Following the procedures of Fields et al., Brain Res., 136, 578 (1977) and Yamamura et al., Neurotransmitter Receptor Binding, Raven Press, N.Y. (1978), homogenized limbic brain tissue is incubated with ^3 H-spiroperidol and various concentrations of test compound, filtered and washed and shaken with Hydrofluor scintillation cocktail (National Diagnostics) and counted in a Packard 460 CD scintillation counter. Binding in the presence of test compound is expressed as percent of specific binding [total binding less binding in the presence of 1 μM (+) butaclamol]. This limbic D2 binding procedure assesses a compounds potential binding at dopamine receptors as a predictor of antipsychotic activity.

[3] = target: T2, serotonin-2 receptors (5HT2) (Rattus norvegicus, UniProt P14842); test: serotonin-2 (5HT2) receptor binding in brain cortical tissue; conditions: for inhibition at 1 µM: read-out: % Inhibition of serotonin 5HT2 binding, at 1 μM
T2 construct: employing brain cortical tissue; from tissue; host or cells: brain cortical tissue

[4] = overall appraisal from conditioned avoidance, serotonin binding inhibition and dopamine receptor binding inhibition procedures; conditions: tertiary nitrogen oxides of the parent compared
Description: as §1

[5] = isolation of metabolites from rat urine after oral administration of the parent drug; assay type: in vivo; conditions: oral administration of parent drug at 100 mg/kg
Excerpt: (§2) By comparative analysis, the compounds of this invention were discovered to be one major form of several metabolites of the compounds disclosed in U.S. Pat. Nos. 4,636,563 and 4,672,117. This may be illustrated by consideration of the metabolic conversion of the compound of claim 13 of U.S. Pat. No. 4,636,563. Oral administration of the drug 8-fluoro-2,3,4,5-tetrahydro-2-[3-(3-pyridinyl)propyl]-1H-pyrido[4,3-b]indole to rats at a dose of 100 milligrams per kg followed by collectiion of urine and isolation of metabolites by column chromatography and selective solubilization in organic solvents yielded several metabolites. […] This metabolic pathway is consistent with the other anti-psychotic-anxilytic agents disclosed and claimed in U.S. Pat. Nos. 4,636,563 and 4,672,117.

[6] = detection of metabolite in monkey urine and plasma after administration of the parent drug; assay type: in vivo; conditions: intragastric 4 mg/kg or iv 1 mg/kg of parent drug
Excerpt: as §2

T1 sequence (P61169 whole entry): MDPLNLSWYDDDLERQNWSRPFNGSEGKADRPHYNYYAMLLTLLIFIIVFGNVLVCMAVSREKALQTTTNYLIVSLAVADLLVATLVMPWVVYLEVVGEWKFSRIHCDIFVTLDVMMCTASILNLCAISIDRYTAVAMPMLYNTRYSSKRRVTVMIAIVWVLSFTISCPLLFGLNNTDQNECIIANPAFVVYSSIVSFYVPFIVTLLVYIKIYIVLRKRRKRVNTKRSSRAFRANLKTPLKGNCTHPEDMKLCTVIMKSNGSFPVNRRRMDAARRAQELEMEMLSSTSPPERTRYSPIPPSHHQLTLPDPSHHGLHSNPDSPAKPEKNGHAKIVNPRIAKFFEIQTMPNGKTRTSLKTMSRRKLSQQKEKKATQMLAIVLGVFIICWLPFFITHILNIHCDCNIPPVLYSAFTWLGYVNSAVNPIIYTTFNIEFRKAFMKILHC
T2 sequence (P14842 whole entry): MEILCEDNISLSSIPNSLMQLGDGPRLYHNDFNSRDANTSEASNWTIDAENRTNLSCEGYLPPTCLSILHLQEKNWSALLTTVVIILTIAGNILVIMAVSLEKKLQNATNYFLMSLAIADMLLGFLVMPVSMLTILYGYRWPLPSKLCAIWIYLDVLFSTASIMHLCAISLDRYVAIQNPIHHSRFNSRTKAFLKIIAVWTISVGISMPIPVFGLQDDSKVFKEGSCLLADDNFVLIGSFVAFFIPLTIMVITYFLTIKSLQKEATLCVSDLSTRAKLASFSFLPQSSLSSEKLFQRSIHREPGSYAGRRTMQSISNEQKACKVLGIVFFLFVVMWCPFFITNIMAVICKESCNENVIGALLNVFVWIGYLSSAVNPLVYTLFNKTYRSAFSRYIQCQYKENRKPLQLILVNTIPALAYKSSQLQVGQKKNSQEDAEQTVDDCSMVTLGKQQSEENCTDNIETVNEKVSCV

Structure (SMILES)	inhibition at 1 µM [2] [%]	inhibition at 1 µM [3] [%]	also measured
[O-][N+]1(CCCc2cccnc2)CCc2[nH]c3ccc(F)cc3c2C1 (stereo not drawn) [C, 8-Fluoro-2,3,4,5-tetrahydro-2-[3-(3-pyridinyl)propyl]-1H-piperidino[4,3-b]indole 2-oxide]	0	18	Inhibition of shelf-jump ([1]; result in words, dose not given): not significant
Fc1ccc2[nH]c3c(c2c1)CN(CCCc1cccnc1)CC3 [A, 8-fluoro-2,3,4,5-tetrahydro-2-[3-(3-pyridinyl)propyl]-1H-piperidino(4,3-b]indole, reference compound]	93	78	Inhibition of shelf-jump ([1]; 20 mg/kg): 73%
[O-][n+]1cccc(CCC[N+]2([O-])CCc3[nH]c4ccc(F)cc4c3C2)c1 (stereo not drawn) [B, 8-Fluoro-2,3,4,5-tetrahydro-2-[3-(3-pyridinyl)propyl]-1H-piperidino[4,3-b]indole N,2-dioxide]	4	18	
[O-][n+]1cccc(CCCN2CCc3[nH]c4ccc(F)cc4c3C2)c1 [D, 8-Fluoro-2,3,4,5-tetrahydro-2-[3-(3-pyridinyl)propyl]-1H-piperidino[4,3-b]indole N-oxide]	66	68	Inhibition of shelf-jump ([1]; 40 mg/kg): 16%; antipsychotic/anxiolytic activity [4]: meaningful antipsychotic/anxiolytic activity; metabolite of the parent drug in urine [5]: one of the major metabolites; detection as metabolite in urine and plasma [6]: detected in monkey urine and plasma
NCCc1ccc(O)c(O)c1 [dopamine, reference compound]			activity at serotonin-2 receptor [3]: inactive
